Test results taken from paper PMC4620497 (Scientific Reports, 2015).

Legend:
DMPK = target: T1, DMPK (Homo sapiens, UniProt Q09013); parameters: method as in earlier work; conditions: Table S1; cited from earlier work
T1 construct: purchased DiscoveRx KINOMEscan (Ambit Biosciences)
T1 sequence (Q09013 1-629): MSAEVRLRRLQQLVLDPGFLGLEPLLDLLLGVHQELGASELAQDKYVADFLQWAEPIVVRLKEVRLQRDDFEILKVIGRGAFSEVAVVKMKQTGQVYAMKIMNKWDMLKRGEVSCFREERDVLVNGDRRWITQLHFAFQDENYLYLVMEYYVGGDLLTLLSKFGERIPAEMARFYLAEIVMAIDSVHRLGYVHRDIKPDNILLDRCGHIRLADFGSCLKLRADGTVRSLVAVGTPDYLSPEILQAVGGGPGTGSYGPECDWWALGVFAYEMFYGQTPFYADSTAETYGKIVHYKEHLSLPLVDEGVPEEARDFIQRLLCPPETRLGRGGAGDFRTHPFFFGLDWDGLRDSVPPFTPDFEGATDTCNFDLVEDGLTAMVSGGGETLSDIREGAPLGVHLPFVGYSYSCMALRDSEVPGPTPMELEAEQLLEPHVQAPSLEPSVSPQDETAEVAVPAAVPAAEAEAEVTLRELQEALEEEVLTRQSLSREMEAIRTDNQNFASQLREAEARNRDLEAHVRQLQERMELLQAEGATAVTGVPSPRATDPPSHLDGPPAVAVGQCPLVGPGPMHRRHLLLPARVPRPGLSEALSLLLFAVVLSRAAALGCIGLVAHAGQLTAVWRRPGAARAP

ERBB4 = target: T2, ERBB4 (Homo sapiens, UniProt Q15303); parameters: method as in earlier work; conditions: Table S1; cited from earlier work
T2 construct: purchased DiscoveRx KINOMEscan (Ambit Biosciences)

PAK4 = target: T3, PAK4 (Homo sapiens, UniProt O96013); parameters: method as in earlier work; conditions: Table S1; cited from earlier work
T3 construct: DNA tag (qPCR read-out); purchased Ambit Biosciences (KINOMEscan service)

IGF1R = target: T4, IGF1R (Homo sapiens, UniProt P08069); parameters: method as in earlier work; conditions: Table S1; cited from earlier work
T4 construct: DNA tag (qPCR read-out); purchased Ambit Biosciences (KINOMEscan service)

EGFR(E746-A750del) = target: T5, EGFR(E746-A750del) (Homo sapiens, UniProt P00533, DEL746-750); test: KINOMEscan panel screen; type: binding; conditions: read-out: Percent Control(%)
T5 construct: purchased DiscoveRx KINOMEscan (Ambit Biosciences)

MLK3 = target: T6, MLK3 (Homo sapiens, UniProt Q16584); test: KINOMEscan panel screen; type: binding; conditions: read-out: Percent Control(%)
T6 construct: purchased DiscoveRx KINOMEscan (Ambit Biosciences)

FLT3-D835H = FLT3-D835H (Homo sapiens, UniProt P36888, D835H); test: KINOMEscan panel screen; type: binding; parameters: purchased DiscoveRx KINOMEscan (Ambit Biosciences); conditions: read-out: Percent Control(%)
PIK4CB = target: T7, PIK4CB (Homo sapiens, UniProt Q9UBF8); test: KINOMEscan panel screen; type: binding; conditions: read-out: Percent Control(%)
T7 construct: purchased DiscoveRx KINOMEscan (Ambit Biosciences)

PRKD1 = target: T8, PRKD1 (Homo sapiens, UniProt Q15139); test: KINOMEscan panel screen; type: binding; conditions: read-out: Percent Control(%)
T8 construct: purchased DiscoveRx KINOMEscan (Ambit Biosciences)

SW620 = test: MTT cell viability assay; conditions: Homo sapiens, SW-620, 72 h
EGFR(L858R) = target: T9, EGFR(L858R) (Homo sapiens, UniProt P00533, L858R); test: KINOMEscan panel screen; type: binding; conditions: read-out: Percent Control(%)
T9 construct: purchased DiscoveRx KINOMEscan (Ambit Biosciences)

HepG2 = test: MTT cell viability assay; conditions: Homo sapiens, HepG2, 72 h
CDK4-cyclinD1 = target: T10, CDK4-cyclinD1 (Homo sapiens, UniProt P11802); test: KINOMEscan panel screen; type: binding; conditions: read-out: Percent Control(%)
T10 construct: purchased DiscoveRx KINOMEscan (Ambit Biosciences)

BTK = BTK (Homo sapiens, UniProt Q06187); test: KINOMEscan panel screen; type: binding; conditions: read-out: Percent Control(%)
PKNB(M.tuberculosis) = target: T11, PKNB(M.tuberculosis) (Mycobacterium tuberculosis, UniProt P9WI81); test: KINOMEscan panel screen; type: binding; conditions: read-out: Percent Control(%)
T11 construct: purchased DiscoveRx KINOMEscan (Ambit Biosciences)

RIOK2 = target: T12, RIOK2 (Homo sapiens, UniProt Q9BVS4); test: KINOMEscan panel screen; type: binding; conditions: read-out: Percent Control(%)
T12 construct: purchased DiscoveRx KINOMEscan (Ambit Biosciences)

C32 = test: MTT cell viability assay; conditions: Homo sapiens, C32, 72 h
FGFR1 = target: T13, FGFR1 (Homo sapiens, UniProt P11362); test: KINOMEscan kinase binding assay (Kd)
T13 construct: purchased DiscoveRx KINOMEscan (Ambit Biosciences)

PRKD3 = target: T14, PRKD3 (Homo sapiens, UniProt O94806); test: KINOMEscan panel screen; type: binding; conditions: read-out: Percent Control(%)
T14 construct: purchased DiscoveRx KINOMEscan (Ambit Biosciences)

PKAC-alpha = target: T15, PKAC-alpha (Homo sapiens, UniProt P17612); test: KINOMEscan panel screen; type: binding; conditions: read-out: Percent Control(%)
T15 construct: purchased DiscoveRx KINOMEscan (Ambit Biosciences)

CDKL1 = target: T16, CDKL1 (Homo sapiens, UniProt Q00532); test: KINOMEscan panel screen; type: binding; conditions: read-out: Percent Control(%)
T16 construct: purchased DiscoveRx KINOMEscan (Ambit Biosciences)

MET = target: T17, MET (Homo sapiens, UniProt P08581); test: KINOMEscan panel screen; type: binding; conditions: read-out: Percent Control(%)
T17 construct: purchased DiscoveRx KINOMEscan (Ambit Biosciences)

CSNK2A1 = target: T18, CSNK2A1 (Homo sapiens, UniProt P68400); test: KINOMEscan panel screen; type: binding; conditions: read-out: Percent Control(%)
T18 construct: purchased DiscoveRx KINOMEscan (Ambit Biosciences)

H441 = test: MTT cell viability assay; conditions: Homo sapiens, NCI-H441, 72 h
MARK2 = target: T19, MARK2 (Homo sapiens, UniProt Q7KZI7); test: KINOMEscan panel screen; type: binding; conditions: read-out: Percent Control(%)
T19 construct: purchased DiscoveRx KINOMEscan (Ambit Biosciences)

EPHA2 = target: T20, EPHA2 (Homo sapiens, UniProt P29317); test: KINOMEscan panel screen; type: binding; conditions: read-out: Percent Control(%)
T20 construct: purchased DiscoveRx KINOMEscan (Ambit Biosciences)

TLK1 = target: T21, TLK1 (Homo sapiens, UniProt Q9UKI8); test: KINOMEscan panel screen; type: binding; conditions: read-out: Percent Control(%)
T21 construct: purchased DiscoveRx KINOMEscan (Ambit Biosciences)

PLK2 = target: T22, PLK2 (Homo sapiens, UniProt Q9NYY3); test: KINOMEscan kinase binding assay (Kd)
T22 construct: purchased DiscoveRx KINOMEscan (Ambit Biosciences)

CSNK1A1L = target: T23, CSNK1A1L (Homo sapiens, UniProt Q8N752); test: KINOMEscan panel screen; type: binding; conditions: read-out: Percent Control(%)
T23 construct: purchased DiscoveRx KINOMEscan (Ambit Biosciences)

CDKL3 = target: T24, CDKL3 (Homo sapiens, UniProt Q8IVW4); test: KINOMEscan panel screen; type: binding; conditions: read-out: Percent Control(%)
T24 construct: purchased DiscoveRx KINOMEscan (Ambit Biosciences)

MST2 = target: T25, MST2 (Homo sapiens, UniProt Q13188); test: KINOMEscan panel screen; type: binding; conditions: read-out: Percent Control(%)
T25 construct: purchased DiscoveRx KINOMEscan (Ambit Biosciences)

GRK4 = target: T26, GRK4 (Homo sapiens, UniProt P32298); test: KINOMEscan panel screen; type: binding; conditions: read-out: Percent Control(%)
T26 construct: purchased DiscoveRx KINOMEscan (Ambit Biosciences)

[1] = target: T27, TYK2(JH2domain-pseudokinase) (Homo sapiens, UniProt P29597); test: KINOMEscan panel screen; type: binding; conditions: read-out: Percent Control(%)
T27 construct: TYK2(JH2domain-pseudokinase); purchased DiscoveRx KINOMEscan (Ambit Biosciences)
T27 sequence (P29597 556-888 limits assumed): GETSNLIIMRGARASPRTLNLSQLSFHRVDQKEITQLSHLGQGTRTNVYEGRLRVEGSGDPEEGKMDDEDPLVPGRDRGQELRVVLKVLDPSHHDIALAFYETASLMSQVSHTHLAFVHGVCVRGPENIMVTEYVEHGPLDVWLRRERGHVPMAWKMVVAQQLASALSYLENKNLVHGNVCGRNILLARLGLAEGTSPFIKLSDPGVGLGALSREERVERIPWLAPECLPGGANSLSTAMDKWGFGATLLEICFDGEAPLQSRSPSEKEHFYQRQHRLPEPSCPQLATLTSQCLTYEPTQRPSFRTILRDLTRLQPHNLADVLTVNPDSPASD

T10 sequence (P11802 whole entry): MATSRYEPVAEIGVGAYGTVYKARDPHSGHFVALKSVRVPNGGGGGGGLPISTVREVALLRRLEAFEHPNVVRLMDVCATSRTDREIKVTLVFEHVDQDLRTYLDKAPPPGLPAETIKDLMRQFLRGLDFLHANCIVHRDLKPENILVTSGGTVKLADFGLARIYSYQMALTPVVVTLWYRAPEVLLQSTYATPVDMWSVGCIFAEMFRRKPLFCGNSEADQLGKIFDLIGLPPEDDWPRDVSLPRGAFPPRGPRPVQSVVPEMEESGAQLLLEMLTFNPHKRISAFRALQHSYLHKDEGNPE
T10 sequence (P24385 whole entry partner): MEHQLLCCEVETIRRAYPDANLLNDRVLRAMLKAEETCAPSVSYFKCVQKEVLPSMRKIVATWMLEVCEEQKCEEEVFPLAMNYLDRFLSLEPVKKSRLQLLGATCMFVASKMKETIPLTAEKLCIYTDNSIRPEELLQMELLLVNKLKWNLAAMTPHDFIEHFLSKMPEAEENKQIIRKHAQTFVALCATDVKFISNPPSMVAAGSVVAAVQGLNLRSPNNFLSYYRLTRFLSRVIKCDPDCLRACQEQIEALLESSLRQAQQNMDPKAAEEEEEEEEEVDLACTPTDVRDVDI
T11 sequence (P9WI81 whole entry): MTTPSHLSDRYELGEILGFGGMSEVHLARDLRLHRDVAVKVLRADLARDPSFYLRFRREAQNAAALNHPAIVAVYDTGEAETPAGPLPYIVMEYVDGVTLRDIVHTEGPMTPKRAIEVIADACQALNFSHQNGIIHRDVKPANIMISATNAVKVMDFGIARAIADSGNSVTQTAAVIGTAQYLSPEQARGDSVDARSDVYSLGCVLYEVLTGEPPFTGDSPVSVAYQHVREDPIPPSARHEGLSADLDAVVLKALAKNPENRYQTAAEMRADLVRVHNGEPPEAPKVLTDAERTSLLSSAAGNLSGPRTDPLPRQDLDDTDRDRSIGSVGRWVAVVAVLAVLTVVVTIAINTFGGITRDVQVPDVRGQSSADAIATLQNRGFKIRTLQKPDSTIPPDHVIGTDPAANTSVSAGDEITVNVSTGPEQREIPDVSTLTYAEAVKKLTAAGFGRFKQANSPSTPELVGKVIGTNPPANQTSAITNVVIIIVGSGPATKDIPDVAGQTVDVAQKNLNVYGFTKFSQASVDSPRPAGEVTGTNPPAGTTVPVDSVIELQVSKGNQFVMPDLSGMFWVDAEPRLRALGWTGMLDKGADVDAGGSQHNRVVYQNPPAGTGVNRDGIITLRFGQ
T6 sequence (Q16584 whole entry): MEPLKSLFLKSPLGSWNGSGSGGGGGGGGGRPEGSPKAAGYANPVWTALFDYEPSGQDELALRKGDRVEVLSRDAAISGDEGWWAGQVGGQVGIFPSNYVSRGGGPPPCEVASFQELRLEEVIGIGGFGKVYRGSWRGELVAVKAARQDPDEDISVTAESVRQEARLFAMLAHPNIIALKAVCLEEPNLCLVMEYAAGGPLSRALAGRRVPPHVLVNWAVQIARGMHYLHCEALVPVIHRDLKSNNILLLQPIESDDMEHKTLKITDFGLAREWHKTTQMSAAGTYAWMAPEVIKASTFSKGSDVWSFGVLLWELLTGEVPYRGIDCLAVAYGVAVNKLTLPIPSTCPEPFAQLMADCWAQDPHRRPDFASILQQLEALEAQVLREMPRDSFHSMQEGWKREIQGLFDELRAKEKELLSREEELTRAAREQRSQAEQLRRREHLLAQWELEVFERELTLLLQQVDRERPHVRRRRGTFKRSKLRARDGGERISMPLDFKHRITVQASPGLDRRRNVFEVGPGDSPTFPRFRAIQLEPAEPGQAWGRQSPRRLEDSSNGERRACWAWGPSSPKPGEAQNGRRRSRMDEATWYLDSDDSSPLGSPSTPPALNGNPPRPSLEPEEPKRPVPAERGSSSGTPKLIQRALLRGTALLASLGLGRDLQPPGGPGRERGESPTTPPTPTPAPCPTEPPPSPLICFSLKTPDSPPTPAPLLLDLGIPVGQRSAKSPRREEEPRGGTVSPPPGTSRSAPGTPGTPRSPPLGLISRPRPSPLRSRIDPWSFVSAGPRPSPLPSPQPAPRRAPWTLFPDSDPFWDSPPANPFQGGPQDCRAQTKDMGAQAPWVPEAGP
T3 sequence (O96013 whole entry): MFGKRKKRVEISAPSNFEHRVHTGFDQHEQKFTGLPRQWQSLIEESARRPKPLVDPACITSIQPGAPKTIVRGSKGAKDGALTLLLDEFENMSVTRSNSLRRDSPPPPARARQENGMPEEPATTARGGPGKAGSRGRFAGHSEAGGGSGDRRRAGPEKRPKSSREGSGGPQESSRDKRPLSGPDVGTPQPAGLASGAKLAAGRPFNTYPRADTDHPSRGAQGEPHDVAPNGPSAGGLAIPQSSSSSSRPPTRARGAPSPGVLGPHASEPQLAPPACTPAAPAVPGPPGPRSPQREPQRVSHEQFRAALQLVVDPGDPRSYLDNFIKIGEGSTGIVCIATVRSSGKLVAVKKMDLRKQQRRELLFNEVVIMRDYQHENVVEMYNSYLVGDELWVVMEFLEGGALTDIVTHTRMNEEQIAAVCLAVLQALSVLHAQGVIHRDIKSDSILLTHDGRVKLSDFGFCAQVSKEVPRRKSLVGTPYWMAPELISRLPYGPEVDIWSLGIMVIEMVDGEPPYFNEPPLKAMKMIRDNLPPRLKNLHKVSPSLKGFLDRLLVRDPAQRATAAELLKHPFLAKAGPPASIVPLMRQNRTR
T9 sequence (P00533 25-1210 L858R): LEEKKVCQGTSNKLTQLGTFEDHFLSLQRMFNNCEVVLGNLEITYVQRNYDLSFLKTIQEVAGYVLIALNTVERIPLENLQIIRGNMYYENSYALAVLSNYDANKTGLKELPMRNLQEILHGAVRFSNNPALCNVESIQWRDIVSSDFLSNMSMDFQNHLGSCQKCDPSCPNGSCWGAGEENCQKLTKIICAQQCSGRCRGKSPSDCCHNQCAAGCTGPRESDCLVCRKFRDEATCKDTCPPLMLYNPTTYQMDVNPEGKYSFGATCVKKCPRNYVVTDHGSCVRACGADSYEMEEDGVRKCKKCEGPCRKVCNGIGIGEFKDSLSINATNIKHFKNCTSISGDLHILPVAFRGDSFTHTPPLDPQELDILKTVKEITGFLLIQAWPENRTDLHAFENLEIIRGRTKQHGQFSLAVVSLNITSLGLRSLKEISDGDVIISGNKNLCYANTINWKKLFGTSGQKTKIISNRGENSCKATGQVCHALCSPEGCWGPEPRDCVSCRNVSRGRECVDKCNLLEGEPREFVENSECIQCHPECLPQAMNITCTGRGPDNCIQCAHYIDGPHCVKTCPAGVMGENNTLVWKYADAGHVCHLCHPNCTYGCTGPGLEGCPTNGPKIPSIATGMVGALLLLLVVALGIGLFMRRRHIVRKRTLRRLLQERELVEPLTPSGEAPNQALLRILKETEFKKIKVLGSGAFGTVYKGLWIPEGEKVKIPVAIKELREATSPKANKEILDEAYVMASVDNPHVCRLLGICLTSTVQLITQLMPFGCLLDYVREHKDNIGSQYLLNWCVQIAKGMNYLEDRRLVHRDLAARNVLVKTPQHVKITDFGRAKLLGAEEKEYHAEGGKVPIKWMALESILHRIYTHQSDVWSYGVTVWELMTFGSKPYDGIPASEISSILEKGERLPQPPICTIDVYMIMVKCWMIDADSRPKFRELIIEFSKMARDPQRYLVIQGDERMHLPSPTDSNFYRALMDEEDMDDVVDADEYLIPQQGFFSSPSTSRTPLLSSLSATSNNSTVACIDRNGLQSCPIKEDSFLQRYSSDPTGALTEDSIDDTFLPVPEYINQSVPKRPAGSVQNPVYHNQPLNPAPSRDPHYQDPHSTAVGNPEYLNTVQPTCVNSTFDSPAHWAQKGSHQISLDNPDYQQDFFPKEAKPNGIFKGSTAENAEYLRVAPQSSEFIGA
T12 sequence (Q9BVS4 whole entry): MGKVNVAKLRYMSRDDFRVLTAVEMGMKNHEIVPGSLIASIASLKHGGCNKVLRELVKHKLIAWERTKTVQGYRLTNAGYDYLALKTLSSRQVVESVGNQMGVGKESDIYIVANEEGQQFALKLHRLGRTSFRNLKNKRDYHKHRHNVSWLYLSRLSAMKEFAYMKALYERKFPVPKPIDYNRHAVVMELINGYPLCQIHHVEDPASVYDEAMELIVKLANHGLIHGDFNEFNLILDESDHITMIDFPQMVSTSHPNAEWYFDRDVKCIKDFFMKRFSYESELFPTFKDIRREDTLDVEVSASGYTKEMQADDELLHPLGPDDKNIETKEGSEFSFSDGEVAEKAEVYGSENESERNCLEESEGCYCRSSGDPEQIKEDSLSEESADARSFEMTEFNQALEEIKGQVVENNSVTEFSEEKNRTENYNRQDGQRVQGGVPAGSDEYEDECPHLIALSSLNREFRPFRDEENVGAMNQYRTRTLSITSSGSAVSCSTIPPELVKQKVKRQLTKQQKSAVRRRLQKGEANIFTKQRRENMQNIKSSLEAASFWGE

SMILES: O=C(Nc1ccc(Oc2ncnc3[nH]ncc23)cc1)Nc1ccc(Cl)c(C(F)(F)F)c1 [Compound 1, 1-(4-(1H-pyrazolo[3,4-d]pyrimidin-4-yloxy)phenyl)-3-(4-chloro-3-(trifluoromethyl)phenyl)urea]
- IC50 (DMPK): > 10 µM
- IC50 (ERBB4): > 10 µM
- IC50 (PAK4): > 10 µM
- IC50 (IGF1R): > 10 µM

SMILES: CC(C)(C)c1cc(NC(=O)Nc2ccc(Oc3ncnc4[nH]ncc34)c(F)c2)no1 [SKLB-677, 1-(4-(1H-pyrazolo[3,4-d]pyrimidin-4-yloxy)-3-fluorophenyl)-3-(5-tert-butylisoxazol-3-yl)urea]
- remaining binding at 10 µM (EGFR(E746-A750del)): 37%
- remaining binding at 10 µM (MLK3): 24%
- remaining binding at 10 µM (FLT3-D835H): 0%
- remaining binding at 10 µM (PIK4CB): 52%
- remaining binding at 10 µM (PRKD1): 98%
- IC50 (SW620): > 10 µM
- remaining binding at 10 µM (EGFR(L858R)): 29%
- IC50 (HepG2): 6.7 µM
- remaining binding at 10 µM (CDK4-cyclinD1): 29%
- remaining binding at 10 µM (BTK): 100%
- remaining binding at 10 µM (PKNB(M.tuberculosis)): 100%
- remaining binding at 10 µM (RIOK2): 88%
- IC50 (C32): > 10 µM
- Kd (FGFR1): 0.6 µM
- remaining binding at 10 µM (PRKD3): 100%
- remaining binding at 10 µM (PKAC-alpha): 31%
- remaining binding at 10 µM (CDKL1): 3.3%
- remaining binding at 10 µM (MET): 0.05%
- remaining binding at 10 µM (CSNK2A1): 100%
- IC50 (H441): > 10 µM
- remaining binding at 10 µM (MARK2): 98%
- remaining binding at 10 µM (EPHA2): 1.2%
- remaining binding at 10 µM (TLK1): 75%
- Kd (PLK2): > 10 µM
- remaining binding at 10 µM (CSNK1A1L): 68%
- remaining binding at 10 µM (CDKL3): 0.75%
- remaining binding at 10 µM (MST2): 87%
- remaining binding at 10 µM (GRK4): 45%
- remaining binding at 10 µM [1]: 100%
